In patent US6210964A, “Avian extracellular calcium-sensing receptor” (The Brigham and Women's Hospital, Inc., priority 1998, dated 2001):
One block for each molecule: values may come before it.

Columns and labels:
chicken CaR = biological target: T1, chicken CaR (Gallus gallus, UniProt A0A8V0ZLX2); test: Expression of chicken CaR in Xenopus laevis oocytes, agonist-dependent inward Cl- currents; type: cell-based
T1 construct: ORF 3177 nt, nt 87-3263), T7 cRNA injected into Xenopus laevis oocytes
T1 sequence (A0A8V0ZLX2 20-1059): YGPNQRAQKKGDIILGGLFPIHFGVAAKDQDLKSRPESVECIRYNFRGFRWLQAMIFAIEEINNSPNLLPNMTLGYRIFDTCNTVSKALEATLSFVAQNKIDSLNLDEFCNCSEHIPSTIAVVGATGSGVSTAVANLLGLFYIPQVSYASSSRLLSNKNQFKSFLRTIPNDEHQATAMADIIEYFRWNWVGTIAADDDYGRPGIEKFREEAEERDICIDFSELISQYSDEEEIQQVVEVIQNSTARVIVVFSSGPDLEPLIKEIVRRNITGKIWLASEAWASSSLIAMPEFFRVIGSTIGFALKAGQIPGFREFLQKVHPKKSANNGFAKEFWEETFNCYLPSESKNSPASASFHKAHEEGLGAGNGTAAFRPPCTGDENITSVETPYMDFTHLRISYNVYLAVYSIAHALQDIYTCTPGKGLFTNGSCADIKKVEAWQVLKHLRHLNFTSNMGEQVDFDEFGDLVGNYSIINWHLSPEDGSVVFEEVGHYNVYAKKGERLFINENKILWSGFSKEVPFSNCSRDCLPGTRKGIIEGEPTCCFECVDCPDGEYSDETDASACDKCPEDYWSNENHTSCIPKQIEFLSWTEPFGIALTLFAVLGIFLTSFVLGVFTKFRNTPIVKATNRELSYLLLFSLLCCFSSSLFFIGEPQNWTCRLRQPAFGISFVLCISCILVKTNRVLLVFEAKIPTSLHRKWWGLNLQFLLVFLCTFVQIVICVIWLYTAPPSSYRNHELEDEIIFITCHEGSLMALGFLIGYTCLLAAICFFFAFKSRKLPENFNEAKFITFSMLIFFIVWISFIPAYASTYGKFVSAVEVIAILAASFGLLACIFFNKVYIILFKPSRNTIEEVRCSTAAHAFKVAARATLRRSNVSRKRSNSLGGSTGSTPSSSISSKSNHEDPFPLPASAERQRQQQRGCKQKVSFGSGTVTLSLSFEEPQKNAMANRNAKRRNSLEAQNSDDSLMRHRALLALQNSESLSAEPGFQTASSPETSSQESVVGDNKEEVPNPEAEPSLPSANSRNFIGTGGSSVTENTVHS
Text: Expression of the chicken CaR in Xenopus laevis oocytes. The assay is based on injection of synthetic RNA (cRNA) for the chicken CaR into Xenopus oocytes and measurement of agonist-dependent inward currents due to CaR-mediated stimulation of Ca^2+ -activated Cl^- channels (Brown, et al., Nature 366: 575-580 (1993)). In preparing, handling and injecting the oocytes, the techniques of Hediger et al. were followed (Proc. Nat'l Acad. Sci. USA 84:2634-2637 (1987)). cRNA was transcribed from the C1D one as previously described (Brown et al. Nature 336:575-580 (1993)). In vitro transcription of cRNA was done with T7 RNA polymerase in the presence of a cap analog (m^7 -GpppG, Pharmacia Biotech, Upsala, Sweden). Defolliculated oocytes were injected with 50 nl of a 0.25 μg/μl aqueous solution of CaR cRNA or with the same volume of H2 O as a negative control. The injected oocytes were then incubated in ND96 "standard" solution containing 92 mM Na, 5 mM K, 0.5 mM CaCl2 0.5 mM MgCl and 5 mM Hepes, pH 7.5, for 3-4 days before electrophysiological study. Cl^- currents were elicited by treatment of the oocytes with increasing concentrations of Ca^2+0, Mg^2+0 or Gd^3+0 and were measured using two electrode voltage clamp at a holding potential of […], as described in detail previously (Brown et al. Nature 336:575-580 (1993); Riccardi, et al. Proc. Nat'l Acad. Sci. USA 92:131-135 (1995)).

human CaR [1] = biological target: T2, human CaR (Homo sapiens, UniProt P41180); test: Cytosolic calcium (Cai) response of HEK 293 cells stably transfected with the human CaR; type: cell-based; set-up: expressed in transfected cells; host or cells: HEK 293; conditions: for effect on the EC50 of activation by Cao compared with 40 mM NaCl: addition of 40 mM salt
T2 sequence (P41180 20-1078): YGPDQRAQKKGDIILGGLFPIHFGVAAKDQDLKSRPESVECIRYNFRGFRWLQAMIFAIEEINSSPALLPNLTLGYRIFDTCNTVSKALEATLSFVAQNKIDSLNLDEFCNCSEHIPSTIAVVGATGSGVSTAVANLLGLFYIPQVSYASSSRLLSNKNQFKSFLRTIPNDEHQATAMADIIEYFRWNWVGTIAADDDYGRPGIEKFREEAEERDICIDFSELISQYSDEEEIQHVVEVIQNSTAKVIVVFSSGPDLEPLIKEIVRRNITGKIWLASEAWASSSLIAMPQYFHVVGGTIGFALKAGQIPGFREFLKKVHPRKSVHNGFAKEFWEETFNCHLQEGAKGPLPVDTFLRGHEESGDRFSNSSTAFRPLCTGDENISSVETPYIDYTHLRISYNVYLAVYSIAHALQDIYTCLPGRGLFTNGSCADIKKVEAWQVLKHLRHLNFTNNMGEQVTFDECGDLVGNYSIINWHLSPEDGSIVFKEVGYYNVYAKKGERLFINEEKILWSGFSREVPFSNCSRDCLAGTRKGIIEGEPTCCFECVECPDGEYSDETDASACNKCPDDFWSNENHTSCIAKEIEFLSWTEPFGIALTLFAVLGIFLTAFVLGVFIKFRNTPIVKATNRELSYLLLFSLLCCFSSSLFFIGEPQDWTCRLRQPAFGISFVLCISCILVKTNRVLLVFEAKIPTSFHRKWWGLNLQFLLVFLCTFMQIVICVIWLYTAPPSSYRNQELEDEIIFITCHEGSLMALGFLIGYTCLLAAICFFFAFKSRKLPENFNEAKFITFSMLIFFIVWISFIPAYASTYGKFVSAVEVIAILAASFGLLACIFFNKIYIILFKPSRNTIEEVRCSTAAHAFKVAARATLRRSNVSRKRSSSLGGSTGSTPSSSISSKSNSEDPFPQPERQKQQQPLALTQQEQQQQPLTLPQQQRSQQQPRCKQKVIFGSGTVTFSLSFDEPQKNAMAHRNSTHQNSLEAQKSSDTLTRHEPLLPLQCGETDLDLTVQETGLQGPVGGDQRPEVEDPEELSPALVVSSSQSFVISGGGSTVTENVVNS
Protocol: Measurement of Cai using cell population system: Coverslips with near-confluent HEK cells were loaded with fura-2/AM and placed diagonally into thermostated cuvettes equipped with a magnetic stirrer. The bath solution was stirred at 37° C., and CaR agonists were added to the desired final concentration. Excitation monochrometers was centered at 340 nm and 380 nm with emission light collected at 90° using a long-pass emission filter. The 340/380 excitation ratio of emitted light was used to calculate Cai. Both in vivo and in vitro calibrations were used to estimate Cai.

human CaR [2] = biological target: T2, human CaR; conditions: addition of NaCl
Protocol: Measurement of ^3 H-inositol phosphates: Cells transfected with DNA encoding human CaR were labeled with [^3 H]inositol (10 uCi/10^6 cells) overnight in medium 199 (with 10 ul/ml penicillin-streptomycin, 10 mM Hepes, pH 7.5, and 15% bovine serum), washed with solution (10 mM LiCl, 0.5 mM MgSO4, 0.5 mM CaCl2, and 2 mg/ml BSA in Eagle's MEM with Earle's salts), and then incubated with polyvalent cations for 30 minutes. Reactions were terminated with a final concentration of 10% TCA. After sedimentation of precipitated debris and removal of TCA by ether extraction, inositol phosphates in the aqueous phase were separated on Dowex anion exchange columns. The radioactive inositol monophosphate (InsP), bisphosphate (InsP2), trisphosphate (InsP3) and tetraphosphate (InsP4) were eluted stepwise with 0.2 M, 0.4 M, 0.8 M and 1.2 M formate containing 0.1 M formic acid, respectively, and quantitated using a liquid scintillation counter.

[3] = oocytes injected with chicken CaR cRNA, Cl- currents

effective concentration range (chicken CaR; [3]): millimolar range
threshold for cell activation (human CaR [1]; no alteration in NaCl): about 1.5 mM
EC50 (human CaR [1]; no alteration in NaCl, read-out: EC50 for activation of the CaR): ~3.5 mM
shift in the EC50 per 10 mM change in ionic strength (human CaR [1]; per 10 mM change in ionic strength): approximately 0.2 mM
SMILES: [Ca+2] [Ca^2+o]

SMILES: [Cl-].[K+] [potassium chloride]
effect on the EC50 of activation by Cao compared with 40 mM NaCl (human CaR [1]): same effect

magnitude of inward current responses relative to Ca2+-evoked responses (chicken CaR; FIG. 5): almost an order of magnitude greater
half-maximal activation (chicken CaR; [3]): micromolar range
SMILES: [Gd+3] [Gd^3+o]

effective concentration range (chicken CaR; [3]): millimolar range
SMILES: [Mg+2] [Mg^2+o]

SMILES: [Cl-].[Na+] [NaCl, sodium chloride]
effect on Ca0-stimulated inositol phosphate accumulation (human CaR [2]): attenuated
effect on Cai response to 2.5 mM Cao (human CaR [1]; NaCl elevated by 20 to 60 mM): attenuated
effect on threshold and EC50 of Cao activation (human CaR [1]; addition of NaCl in 20 mM increments): shift to the right

SMILES: C[N+](C)(C)CCO.[Cl-] [choline chloride]
effect on the EC50 of activation by Cao compared with 40 mM NaCl (human CaR [1]): same effect
